Values quoted from earlier work in patent US20220080043A1, “OIL/SURFACTANT MIXTURES FOR SELF-EMULSIFICATION” (priority 2019, published 2022).

Settings: Table 2; surfactants used

sorbitan monooleate [Span80]
HLB: 4.3
